{"source": "patent US8795746B2", "about": "“Therapeutic use of mucin glycans” (The Board of Trustees of the Leland Stanford Junior …, priority 2011, dated 2014)", "key": {"[1]": {"tested_on": "Bif. infantis ATCC15697", "assay": "In vitro growth of Bif. infantis in minimal medium with the glycan as carbon source", "type": "cell-based, Bifidobacterium longum subsp. infantis", "conditions": "minimal medium (modified MRS without glucose) with the glycan", "method": "We next queried whether the redundancy in machinery employed for mucin and HMO consumption in Bt is also found in Bifidobacterium species that are well-adapted to HMO use. Therefore, we grew a strain known to be proficient at HMO-use, Bif. infantis ATCC15697 in MM-O-PMG.\n(§1) Bacterial Strains and Culture conditions. Type strains for Bacteroides species were used unless otherwise indicated. Bacteroides species were grown in tryptone-yeast extract-glucose (TYG) medium and minimal medium (MM) as described previously. Bif. infantis was grown in Man-Rogosa-Sharpe (MRS) medium (Oxoid LTD., Basingstoke, Hampshire, England) and minima medium consisting of modified MRS, which lacks glucose. […] OD600 was monitored using a BioTek PowerWave 340 plate reader (BioTek, Winoosky, Vt., United States) every 30 min, at 37° C. anaerobically (6% H2, 20% CO2, 74% N2).\nB. thetaiotaomicron and Bifidobacterium infantis Differentially Consume the Structurally Similar Mucin Glycans and HMO. […] We grew an HMO-consuming Bifidobacterium strain that is abundant in the microbiota of breast-fed infants, Bi, in purified porcine mucin glycans (MM-O-PMG) to elucidate its competence in mucin consumption. […]\n(§2) Bacterial Strains and Culture Conditions. […] OD600 was monitored using a BioTek PowerWave 340 plate reader (BioTek, Winooski, Vt.) every 30 min, at 37_C anaerobically (6% H2, 20% CO2, 74% N2)."}, "[2]": {"tested_on": "Bt and Bi fecal community", "assay": "Competitive colonization of gnotobiotic mice biassociated with Bt and B. infantis, LNnT in the water", "type": "in vivo, germ-free Swiss-Webster mice", "method": "Two groups of 6-week-old germ-free mice were fed a polysaccharide-deficient diet, forcing a reliance on host mucus glycans for carbon and energy. One group received LNnT supplementation in the water (1% w/v; average consumption of 75 mg of LNnT daily), the control group received plain water.\nAfter one day of LNnT feeding, both groups were colonized with equivalent quantities of Bt and Bi (10^8 CFU each). At day 6 post-inoculation, the group receiving LNnT was switched to normal water; at day 15 post-inoculation, LNnT was readministered for 3 additional days. Total bacterial colonization density was determined by assessing the CFUs in feces over the course of the 18 day experiment. […] LNnT supplementation was withdrawn on day 6 and colonization density was determined on days 7, 8, 9, 12, and 15 post colonization (1, 2, 3, 6, and 9 days after removing LNnT from the water). […] At day 3 post withdrawal of LNnT, Bi representation was 3.9±0.2% compared to 41.5±6.4% just prior to withdrawal (p=0.006, day 6 versus day 9, n=4 mice). LNnT was reintroduced into the water on day 15, and bacterial colonization was monitored at days 16, 17, and 18 post colonization. Two days after LNnT reintroduction, Bi expanded from 0.5±0.5% at day 15 to 49.9±2% at day 17 (p=0.012, day 15 versus day 17, n=4 mice). By day 18, Bi represented 25.9±9.6% of the community in LNnT-fed mice, compared to 1.9±1.5% in the control group (p=0.014, n=4 mice) (FIG. 16C).\nCompetitive Colonization of Gnotobiotic Mouse. Germ-free Swiss-Webster mice were reared in gnotobiotic isolators and fed an autoclaved polysaccharide-deficient diet in accordance with A-PLAC, the Stanford IACUC. Mice were biassociated using oral gavage (10^8 CFU of each species). Subsequent community enumerations from mice were determined from freshly collected feces, by selective plating of serial dilutions in RCM agar and BHI-blood agar supplemented with gentamicin ([…]). Significant differences between sample groups were determined using Student's t test. Synthetic LNnT (Glycom A/S, Denmark) was purified by crystallization to a final purity of >99%. Characterization was performed using multiple methods, including NMR (1D and 2D) mass spectrometry, and HPLC."}, "[3]": {"tested_on": "Bacteroides thetaiotaomicron (Bt)", "assay": "In vitro growth of Bt in minimal medium with the glycan as sole carbohydrate (OD600)", "type": "cell-based", "conditions": "glycan 1.5% w/v as sole carbon source", "method": "The transcriptome was analyzed near the midpoints of the two logarithmic growth phases in MM-HMO (n=2 biological replicates/growth phase, four datasets total). As a baseline for comparison, we used previously reported in vitro datasets of Bt grown in MM-glucose. […] Within these combined 253 genes (132 were commonly up regulated in both phases), 137 genes had ≧5-fold change in expression when compared to MM-glucose (see Table S1 for complete list of genes).\nas §1\nas §2, with “Conditions. Type strains were used unless otherwise indicated. Bacteroides species were grown in tryptone-yeast extract-glucose (TYG) medium and minimal medium (MM).” for “Conditions.”"}, "[4]": {"tested_on": "Bt VPI-5482 genes / PULs", "assay": "Whole genome transcriptional profiling of Bt (GeneChip) relative to MM-glucose", "type": "cell-based, Bacteroides thetaiotaomicron", "conditions": "compared to MM-glucose", "description": "We grew Bt in minimal medium (MM) containing HMO (1.5% w/v) as the sole carbohydrate to investigate if this strain consumes human milk glycans in vitro. […] Next, we defined the transcriptional response of Bt during HMO consumption using whole genome transcriptional profiling with a custom Bt VPI-5482 GeneChip that represent >98% of this organism's protein coding genes. The transcriptome was analyzed near the midpoints of the two logarithmic growth phases in MM-HMO (n=2 biological replicates/growth phase, four datasets total). As a baseline for comparison, we used previously reported in vitro datasets of Bt grown in MM-glucose.\nWe wished to identify which portion of the observed Bt transcriptional response in MM-HMO was due to the complex oligosaccharides versus simple core sugars, lactose and galactose. Therefore, we performed transcriptional profiling of Bt grown in MM-galactose and MM-lactose (n=2 mid-log phase datasets for each of these monophasic growths; see FIG. 8 for growth curves and sampling timepoints).\nWhole Genome Transcriptional Profiling. […] GeneChip data from bacteria growth in different carbon sources were normalized using R program by RMA-MS and statistical significance for differential gene expression was determined using SAM [45]. […]"}, "[5]": {"tested_on": "B. fragilis", "assay": "Sialic acid content determination in MM-HMO after B. fragilis growth (DMB derivatization, RP-HPLC)", "type": "cell-based, Bacteroides fragilis", "method": "Ten of the 21 genes in the HMO-specific B. fragilis response were distributed within two loci that are dedicated to sialic acid acquisition and catabolism (FIG. 6B).\nSialic acid content determination. B. fragilis culture supernatant was isolated after growth in MM-HMO and clarified by centrifugation and filtration. Sialic acid concentrations were determined by the Glycotechnology Core Facility UCSD (University of California, San Diego, Calif., United States). Briefly, sialic acids were released by acid hydrolysis at 80 C for 3 hours in 2M acetic acid, collected by ultra-filtration, and derivatized with DMB (1,2-diamino-4,5-methylenedioxybenzene). The resulting fluorescent sialic acids derivatives were analyzed by RP-HPLC with on-line fluorescence detection, and identification was based on standards run in parallel.\n(§3) Sialic Acid Content Determination. Culture supernatant was isolated after growth in MM-HMO and clarified by centrifugation and filtration. Sialic acid concentrations were determined by the Glycotechnology Core Facility UCSD (University of California, San Diego, San Diego, Calif.), using the […] DMB labeling kit protocol (Prozyme, San Leandro, Calif.)."}, "[6]": {"tested_on": "Bt", "assay": "Sialic acid content determination in MM-HMO after Bt growth", "type": "cell-based, Bacteroides thetaiotaomicron", "method": "Twelve of the 21 HMO-specific Bf genes were distributed within two loci that are dedicated to sialic acid acquisition and catabolism (FIG. 16B). […] To confirm that Bf does in fact consume sialic acids from HMOs, sialic acid content in the MM-HMO after growth was measured before and after acid hydrolysis using derivatization with 1,2-diamino-4,5-methylenedioxybenzene followed by reverse phase HPLC.\nas §3"}}}
{"smiles": "CC(=O)N[C@H]1[C@H](O[C@H]2[C@@H](O)[C@@H](CO)O[C@@H](O[C@H]3[C@H](O)[C@@H](O)C(O)O[C@@H]3CO)[C@@H]2O)O[C@H](CO)[C@@H](O[C@@H]2O[C@H](CO)[C@H](O)[C@H](O)[C@H]2O)[C@@H]1O", "note": "(mixture of isomers) [LNnT, lacto-N-neotetraose]", "values": [{"measurement": "growth of Bif. infantis", "setting": "[1]", "value": "grew efficiently reaching a high OD"}, {"measurement": "time for Bi to drop to levels similar to controls after removal of LNnT", "setting": "[2]; LNnT withdrawn on day 6", "value": "≤ 2", "unit": "days"}, {"measurement": "Bi relative to Bt in fecal community", "setting": "[2]; day 6, LNnT 1% w/v in water, polysaccharide-deficient diet", "value": "41.5±6.4", "unit": "%"}, {"measurement": "Bi representation", "setting": "[2]; day 9, day 3 post withdrawal of LNnT", "value": "3.9±0.2", "unit": "%"}, {"measurement": "Bi representation", "setting": "[2]; day 15, before LNnT reintroduction", "value": "0.5±0.5", "unit": "%"}, {"measurement": "Bi representation", "setting": "[2]; day 17, two days after LNnT reintroduction", "value": "49.9±2", "unit": "%"}, {"measurement": "Bi share of the community", "setting": "[2]; day 18, LNnT-fed mice", "value": "25.9±9.6", "unit": "%"}, {"measurement": "growth of Bt", "setting": "[3]", "value": "did not"}]}
{"smiles": "O=C[C@H](O)[C@@H](O)[C@@H](O)[C@H](O)CO", "note": "[galactose]", "values": [{"measurement": "number of Bt genes up regulated at least 5-fold", "setting": "[4]", "value": 40, "unit": "genes"}]}
{"smiles": "OC[C@H]1O[C@@H](O[C@H]2[C@H](O)[C@@H](O)C(O)O[C@@H]2CO)[C@H](O)[C@@H](O)[C@H]1O", "note": "(stereo partly drawn) [lactose]", "values": [{"measurement": "number of Bt genes up regulated at least 5-fold", "setting": "[4]", "value": 34, "unit": "genes"}]}
{"smiles": "CC(=O)N[C@H]1[C@H]([C@H](O)[C@H](O)CO)OC(O)(C(=O)O)C[C@@H]1O", "note": "(stereo partly drawn) [Neu5Ac, N-acetylneuraminic acid]", "values": [{"measurement": "Neu5Ac content after B. fragilis growth", "setting": "[5]", "value": "completely depleted"}, {"measurement": "Neu5Ac use by Bt", "setting": "[6]", "value": "unable to catabolize it"}]}
